From US7745492B2, “Carboxamido opioid compounds” (Janssen Pharmaceutical, priority 2004, dated 2010)

Legend:
delta opioid receptor = biological target: T1, delta opioid receptor (Rattus norvegicus, UniProt P33533); assay: Rat brain delta opioid receptor binding assay ([3H]DPDPE); details: rat forebrain membranes, 25° C.
T1 construct: from tissue; host or cells: rat forebrain membrane (particulate) preparation
Procedure: Rat Brain Mu and Delta Opioid Receptor Binding Assay
Male, Wistar rats (150-250 g, VAF, Charles River, Kingston, N.Y.) were killed by cervical dislocation and their brains removed and placed immediately in ice cold Tris HCl buffer (50 mM, pH 7.4). The forebrains were separated from the remainder of the brain by a coronal transection, beginning dorsally at the colliculi and passing ventrally through the midbrain-pontine junction. After dissection, the forebrains were homogenized in Tris buffer in a Teflon®-glass homogenizer. The homogenate was diluted to a concentration of 1 g of forebrain tissue per 100 mL Tris buffer and centrifuged at 39,000×G for 10 min. The pellet was resuspended in the same volume of Tris buffer with several brief pulses from a Polytron homogenizer. This particulate preparation was used for the opioid receptor binding assays. […] The tubes and filters were rinsed three times with 4 mL of 10 mM HEPES (pH 7.4) and the radioactivity associated with the filter circles determined using Formula 989 scintillation fluid (New England Nuclear, Boston, Mass.) in a scintillation counter.
The data were used to calculate a Ki value, using GraphPad Prism.

Human mu opioid = biological target: T2, Human mu opioid (Homo sapiens, UniProt P35372); assay: [35S]GTPγS binding assay in human mu opioid-CHO cell membranes; type: biochemical
T2 construct: host or cells: CHO cell membranes
T2 sequence (P35372 whole entry): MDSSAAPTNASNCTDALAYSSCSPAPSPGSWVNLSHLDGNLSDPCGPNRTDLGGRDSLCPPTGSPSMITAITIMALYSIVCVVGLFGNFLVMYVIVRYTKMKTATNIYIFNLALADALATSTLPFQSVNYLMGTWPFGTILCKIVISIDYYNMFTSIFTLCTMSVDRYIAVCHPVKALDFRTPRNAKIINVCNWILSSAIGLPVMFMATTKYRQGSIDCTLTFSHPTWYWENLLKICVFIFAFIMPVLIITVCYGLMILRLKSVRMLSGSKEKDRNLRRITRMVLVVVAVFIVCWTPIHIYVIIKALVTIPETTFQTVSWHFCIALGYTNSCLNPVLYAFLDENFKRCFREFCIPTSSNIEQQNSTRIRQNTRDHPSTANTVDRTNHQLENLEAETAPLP
Procedure: [^35S]GTPγS Binding Assay in Human mu opioid-CHO Cell Membranes
Human mu-CHO cell membranes were purchased from Receptor Biology, Inc. (Baltimore, Md.). About 10 mg/ml of membrane protein was suspended in 10 mM TRIS-HCl, pH 7.2, 2 mM EDTA, 10% sucrose.
Membranes were maintained at 4-8° C. 1 ml of membranes was added into 15 ml cold assay buffer, containing 50 mM HEPES, pH 7.6, 5 mM MgCl2, 100 mM NaCl, 1 mM DTT and 1 mM EDTA. The membrane suspension was homogenized with a Polytron 2 times and centrifuged at 3000 rpm for 10 min. The supernatant was then centrifuged at 18,000 rpm for 20 min. The pellet was resuspended in 10 ml assay buffer with a Polytron.
The pellet membranes (20 μg/ml) were preincubated with Scintillation Proximity Assay beads (SPA, 10 mg/ml) at 25° C. for 45 min in the assay buffer. The SPA beads (5 mg/ml) coupled with membranes (10 μg/ml) were then incubated with 0.5 nM [^35S]GTPγS in the same HEPES buffer containing 50 μM GDP in total volume of 200 μl. A range of concentrations of receptor agonists were used to stimulate [^35S]GTPγS binding. The basal binding was tested in the absence of agonist and non-specific binding was tested in the presence of 10 μM unlabeled GTPγS. Radioactivity was quantified on a Packard TopCount.
Data were Calculated as Follows: % of basal=(stimulated−non-specific)*100/(basal−non specific) % Inhibition=(% Basal of 1 μM DAMGO−% Basal of compound)*100/(% Basal of 1 μM DAMGO−100)
EC50 values were calculated using the Prism program.

[1] = system: spinal nerve ligated rats; assay: Investigation of tolerance development to antiallodynic effect; type: in vivo, rat; details: dosing for five days, evaluated days one and five
Procedure: Investigation of Tolerance Development
The development of tolerance to the analgesic effect of mu opioid compounds is well known. The development of tolerance to the antiallodynic effect of the Compound 3 was investigated by administering the compound to spinal nerve ligated rats for five days. The antiallodynic effect of the compound was evaluated on days one and five.

[2] = Metabolic stability in rat liver microsomes; type: in vitro ADME; details: 10 min incubation
Procedure: (§1) The metabolic stability of Compound 3 was investigated using several approaches. The compound was incubated with liver microsomes from mouse, rat, dog and human and the percent of compound remaining after ten min quantified. The compound was metabolically robust in all species tested.

[3] = Metabolic stability in human liver microsomes; type: in vitro ADME
Procedure: as §1
In a follow up study in human liver microsomes, the percent of compound remaining was determined at several incubation times (30, 60 and 90 min). The in vitro half life of the compound was determined to be >100 minutes.

[4] = biological target: T3, recombinant human P450 1A2 (Homo sapiens, UniProt P05177); assay: Recombinant human P450 isoform inhibition, 1A2; type: in vitro ADME
T3 sequence (P05177 1-516): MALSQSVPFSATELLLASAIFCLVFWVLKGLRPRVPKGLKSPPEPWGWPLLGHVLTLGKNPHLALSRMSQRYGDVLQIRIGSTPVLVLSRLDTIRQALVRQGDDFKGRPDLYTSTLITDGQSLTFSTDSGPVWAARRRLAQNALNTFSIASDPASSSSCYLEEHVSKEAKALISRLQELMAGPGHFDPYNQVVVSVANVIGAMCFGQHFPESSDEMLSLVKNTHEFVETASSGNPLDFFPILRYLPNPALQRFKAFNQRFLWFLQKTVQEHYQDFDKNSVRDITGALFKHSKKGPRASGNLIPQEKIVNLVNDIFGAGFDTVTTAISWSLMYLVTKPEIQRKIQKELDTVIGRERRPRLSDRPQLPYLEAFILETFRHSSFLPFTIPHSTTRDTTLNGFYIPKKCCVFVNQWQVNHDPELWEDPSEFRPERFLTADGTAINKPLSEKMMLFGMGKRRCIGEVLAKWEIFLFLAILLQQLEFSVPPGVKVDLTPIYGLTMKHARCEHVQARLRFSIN
Procedure: In a study using recombinant human P450 isoforms, the compound was only a weak inhibitor (IC50>10 μM) of all isoforms tested, 3A4, 2D6, 2C9, 2C19, and 1A2.

[5] = Glucuronidation in human liver microsomes; type: in vitro ADME; details: in vitro

T1 sequence (P33533 whole entry): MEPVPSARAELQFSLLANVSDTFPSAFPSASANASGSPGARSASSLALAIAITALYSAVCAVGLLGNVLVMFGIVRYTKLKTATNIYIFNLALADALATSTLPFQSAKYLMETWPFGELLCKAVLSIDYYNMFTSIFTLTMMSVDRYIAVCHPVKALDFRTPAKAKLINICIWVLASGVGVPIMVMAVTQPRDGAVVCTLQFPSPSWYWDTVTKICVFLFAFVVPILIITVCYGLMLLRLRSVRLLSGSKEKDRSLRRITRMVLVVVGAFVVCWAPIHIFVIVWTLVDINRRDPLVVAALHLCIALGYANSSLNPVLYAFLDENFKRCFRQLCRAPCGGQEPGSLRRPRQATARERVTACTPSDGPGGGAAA

CN(C)C[C@H]1CCCC[C@]1(O)c1cccc(C(N)=O)c1 (single isomer, unassigned) [Cpd 3]
Ki (delta opioid receptor): 3.14 µM | EC50 (Human mu opioid): 0.167 µM | Mu opioid GTPγS relative efficacy (Human mu opioid): 75% | Development of tolerance to the antiallodynic effect [1]: did not diminish the antiallodynic effect | % remaining after 10 min [2]: 94.5% | % remaining after 10 min ([3]; 10 min incubation): 101.4% | Metabolism in human liver microsomes (result in words) ([3]; 10 min incubation): no metabolism of the compound was observed | half-life ([3]; incubation times 30, 60 and 90 min, read-out: In vitro half life): > 1.67 h | IC50 [4]: > 10 µM | Glucuronidation [5]: no glucuronidation of the compound was detected
